# Measurements as given in patent publication US20240335406A1, “COMPOUNDED COMPOSITIONS AND METHODS FOR TREATING PAIN” (CMPD Licensing, LLC, priority 2016, published 2024).
# Structures can show the parent of a compound that is named as a salt.
# Experiment: Potency test of the compounded topical solution of Example 1 (HPLC with UV/photodiode array detector)
# Assay type: physicochemical
# Settings: for Measured: concentration of analyte in compounded topical solution of Example 1; for Potency: measured vs reported concentration, compounded topical solution of Example 1
# Protocol: Diclofenac sodium topical solution, 1.5% (w/w), includes approximately 16.05 mg diclofenac sodium per mL. Accordingly, approximately 0.9167 mL of diclofenac sodium topical solution, 1.5% (w/w), was measured for every mL of compounded topical solution. […] The measured ingredients where combined in a beaker. The beaker was placed on a magnetic stirring plate and a stir bar was placed in the beaker and rotated at a speed to create a small vortex for 5 minutes. The stirred solution was then placed in containers.
Structure (SMILES),Measured [%],Potency [%]
"CCN(CC)CC(=O)Nc1c(C)cccc1C [Lidocaine HCl, Lidocaine Hydrochloride]",0.336,101
O=C(O)Cc1ccccc1Nc1c(Cl)cccc1Cl [Diclofenac Sodium],1.51,103
